Measured values: the NIST ThermoML archive (doi:10.1016/j.fluid.2015.04.022)
Numbers after ± are expanded uncertainties.

Settings: 298.2 K, 101.33 kPa, Liquid; for viscosity: Falling or rolling sphere viscometry; for mass density: Vibrating tube method

Row | viscosity [mPa·s] | mass density [kg/m3] | Structure (SMILES)
1 | 0.92 ± 0.12 | 841.35 ± 0.36 | C=C(C)[C@H]1CC=C(C)CC1 [(R)-1-methyl-4-(1-methylethenyl)cyclohexene]
2 | 4.57 ± 0.13 | 857.38 ± 0.28 | C=CC(C)(O)CCC=C(C)C (centres undefined) [3,7-dimethyl-1,6-octadien-3-ol]
